Results published in PubChem BioAssay AID248 (DTP/NCI, 2004).
Values joined by “and” are separate entries in the source; they are usually repeats but may differ in a detail not shown here. Equal entries are not always repeated. Inconclusive results and toxic doses are left out. No stated cut-off is given here; in the data, active means T/C of 150% or more; inactive means T/C below 125%.

Test system: L1210 leukemia ip in BDF1 mice, survival T/C
Experiment: NCI In Vivo Anticancer Drug Screen. Data for tumor model L1210 Leukemia (intraperitoneal) in B6D2F1 (BDF1) mice
Details: endpoint: mean survival time, higher = longer survival
Outline: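 Survival endpoint. Drug-treated group vs vehicle group, expressed as T divided by C. Tumor passaged by transplantation.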

[1] = dose: 50.0 mg/kg/injection, schedule: Q01DX001 (ip), vehicle: carboxymethylcellulose (CMC)
[2] = dose: 100.0 mg/kg/injection, schedule: Q01DX001 (ip), vehicle: carboxymethylcellulose (CMC)
[3] = dose: 200.0 mg/kg/injection, schedule: Q01DX001 (ip), vehicle: carboxymethylcellulose (CMC)
[4] = dose: 400.0 mg/kg/injection, schedule: Q01DX001 (ip), vehicle: carboxymethylcellulose (CMC)
[5] = dose: 100.0 mg/kg/injection, schedule: Q04DX003 (ip), vehicle: saline with Tween-80
[6] = dose: 200.0 mg/kg/injection, schedule: Q04DX003 (ip), vehicle: saline with Tween-80
[7] = dose: 400.0 mg/kg/injection, schedule: Q04DX003 (ip), vehicle: saline with Tween-80
[8] = dose: 50.0 mg/kg/injection, schedule: Q04DX002 (ip), vehicle: Klucel (hydroxypropylcellulose) (HPC)
[9] = dose: 100.0 mg/kg/injection, schedule: Q04DX002 (ip), vehicle: Klucel (hydroxypropylcellulose) (HPC)
[10] = dose: 200.0 mg/kg/injection, schedule: Q04DX002 (ip), vehicle: Klucel (hydroxypropylcellulose) (HPC)
[11] = dose: 400.0 mg/kg/injection, schedule: Q04DX002 (ip), vehicle: Klucel (hydroxypropylcellulose) (HPC)
[12] = dose: 12.5 mg/kg/injection, schedule: Q04DX003 (ip), vehicle: saline
[13] = dose: 25.0 mg/kg/injection, schedule: Q01DX009 (ip), vehicle: saline
[14] = dose: 25.0 mg/kg/injection, schedule: Q04DX003 (ip), vehicle: saline
[15] = dose: 50.0 mg/kg/injection, schedule: Q04DX003 (ip), vehicle: saline
[16] = dose: 100.0 mg/kg/injection, schedule: Q01DX009 (ip), vehicle: Klucel (hydroxypropylcellulose) (HPC)
[17] = dose: 200.0 mg/kg/injection, schedule: Q01DX009 (ip), vehicle: Klucel (hydroxypropylcellulose) (HPC)
[18] = dose: 400.0 mg/kg/injection, schedule: Q01DX009 (ip), vehicle: Klucel (hydroxypropylcellulose) (HPC)

Measured: T/C

Oc1c(Cl)cc(Cl)cc1C1N(Cc2ccc(N(CCCl)CCCl)cc2Cl)CCCN1Cc1ccc(N(CCCl)CCCl)cc1Cl
inactive: [1] 109 % of control | [2] 105 % of control | [3] 103 % of control | [4] 103 % of control

CC(=O)Nc1cccc(NC(C)=O)n1
inactive: [5] 94 % of control | [6] 104 % of control | [7] 100 % of control

CC1=COC(C)(C=O)CC1 (stereo not drawn)
inactive: dose: 222.0 mg/kg/injection, schedule: Q01DX Z (ip), vehicle: methylcellulose (MC) 94 % of control | dose: 333.0 mg/kg/injection, schedule: Q01DX Z (ip), vehicle: methylcellulose (MC) 98 % of control | dose: 500.0 mg/kg/injection, schedule: Q01DX Z (ip), vehicle: methylcellulose (MC) 88 % of control

C=C1OC(=O)C(=O)N1CC(=O)O
inactive: dose: 100.0 mg/kg/injection, schedule: Q01DX001 (ip), vehicle: saline 103 % of control | dose: 200.0 mg/kg/injection, schedule: Q01DX001 (ip), vehicle: saline 106 % of control

CN(C)N=Nc1ccc(C(=O)N/N=C/c2ccccc2)cc1
inactive: dose: 75.0 mg/kg/injection, schedule: Q04DX003 (ip), vehicle: Klucel (hydroxypropylcellulose) (HPC) 99 % of control | dose: 150.0 mg/kg/injection, schedule: Q04DX003 (ip), vehicle: Klucel (hydroxypropylcellulose) (HPC) 97 % of control | dose: 300.0 mg/kg/injection, schedule: Q04DX003 (ip), vehicle: Klucel (hydroxypropylcellulose) (HPC) 100 % of control

Cc1nonc1C(=O)O
inactive: dose: 100.0 mg/kg/injection, schedule: Q04DX002 (ip), vehicle: saline 102 % of control | dose: 200.0 mg/kg/injection, schedule: Q04DX002 (ip), vehicle: saline 87 % of control | dose: 400.0 mg/kg/injection, schedule: Q04DX002 (ip), vehicle: saline 98 % of control

Nc1ccc(S(=O)(=O)c2ccc(N)cn2)cc1
inactive: [8] 89 % of control | [9] 98 % of control and 107 % of control | [10] 96 % of control | [11] 96 % of control and 102 % of control

O=c1cc(CO)occ1O.O=c1cc(CO)occ1O.[O]=[V]
inactive: dose: 4.0 mg/kg/injection, schedule: Q01DX015 (ip), vehicle: carboxymethylcellulose (CMC) 101 % of control | dose: 8.0 mg/kg/injection, schedule: Q01DX015 (ip), vehicle: carboxymethylcellulose (CMC) 105 % of control | dose: 12.5 mg/kg/injection, schedule: Q01DX009 (ip), vehicle: saline 87 % of control | [12] 92 % of control | dose: 16.0 mg/kg/injection, schedule: Q01DX015 (ip), vehicle: carboxymethylcellulose (CMC) 106 % of control | [13] 92 % of control | [14] 91 % of control | [15] 102 % of control

C=C(C)COc1c(C)cc(C)cc1[N+](=O)[O-]
inactive: [5] 96 % of control | [6] 100 % of control | [7] 97 % of control

CCCCCCCCCCCCNC(=O)C[n+]1cccc(C(=O)N(CC)CC)c1
inactive: [12] 92 % of control | [14] 97 % of control | [15] 97 % of control

COc1ccccc1NC(=O)c1ccco1
inactive: dose: 12.5 mg/kg/injection, schedule: Q04DX002 (ip), vehicle: Klucel (hydroxypropylcellulose) (HPC) 102 % of control | dose: 25.0 mg/kg/injection, schedule: Q04DX002 (ip), vehicle: Klucel (hydroxypropylcellulose) (HPC) 102 % of control | [8] 97 % of control | [9] 95 % of control | [10] 106 % of control | [11] 103 % of control

O=C(O)c1cnc(Cl)c(Br)c1
inactive: [5] 94 % of control | [6] 94 % of control | [7] 96 % of control

CCN(CC)CCSC(=O)C(O)(c1ccccc1)C1CCCC1 (stereo not drawn)
inactive: [13] 103 % of control | dose: 50.0 mg/kg/injection, schedule: Q01DX009 (ip), vehicle: saline 97 % of control and 108 % of control | dose: 75.0 mg/kg/injection, schedule: Q01DX001 (ip), vehicle: saline 96 % of control | dose: 100.0 mg/kg/injection, schedule: Q01DX009 (ip), vehicle: saline 100 % of control and 88 % of control | dose: 100.0 mg/kg/injection, schedule: Q04DX003 (ip), vehicle: saline 102 % of control | dose: 150.0 mg/kg/injection, schedule: Q01DX001 (ip), vehicle: saline 92 % of control | dose: 200.0 mg/kg/injection, schedule: Q04DX003 (ip), vehicle: saline 100 % of control

C(=C\[P+](Cc1ccccc1)(c1ccccc1)c1ccccc1)/c1ccccc1
inactive: dose: 12.5 mg/kg/injection, schedule: Q04DX003 (ip), vehicle: saline with Tween-80 100 % of control | dose: 25.0 mg/kg/injection, schedule: Q04DX003 (ip), vehicle: saline with Tween-80 92 % of control

O=C(NCCCNC(=O)Nc1cccc(C2=NCCCN2)c1)Nc1cccc(C2=NCCCN2)c1
inactive: dose: 0.5 mg/kg/injection, schedule: Q01DX Z (ip), vehicle: carboxymethylcellulose (CMC) 104 % of control | dose: 1.0 mg/kg/injection, schedule: Q01DX Z (ip), vehicle: carboxymethylcellulose (CMC) 106 % of control | dose: 2.0 mg/kg/injection, schedule: Q01DX Z (ip), vehicle: carboxymethylcellulose (CMC) 96 % of control

Cn1c(N)nc2nc[nH]c2c1=O
inactive: dose: 18.7 mg/kg/injection, schedule: Q01DX Z (ip), vehicle: methylcellulose (MC) 95 % of control | dose: 37.5 mg/kg/injection, schedule: Q01DX Z (ip), vehicle: methylcellulose (MC) 89 % of control

C=CCNC(=O)Oc1cccc(NC(=O)N(C)C)c1
inactive: dose: 100.0 mg/kg/injection, schedule: Q01DX009 (ip), vehicle: saline with Tween-80 107 % of control | dose: 200.0 mg/kg/injection, schedule: Q01DX009 (ip), vehicle: saline with Tween-80 109 % of control | dose: 400.0 mg/kg/injection, schedule: Q01DX009 (ip), vehicle: saline with Tween-80 120 % of control

O=C(Nc1ncc([N+](=O)[O-])s1)c1ccccc1Oc1ccccc1
inactive: [9] 102 % of control | [10] 115 % of control | [11] 100 % of control

CCC(CC)(CCN)c1ccccc1
inactive: [1] 90 % of control | [2] 93 % of control

Cc1ccc(S(=O)(=O)OCCOc2ccc(C(C)(C)CC(C)(C)C)cc2)cc1
inactive: [16] 100 % of control | [17] 101 % of control | [18] 100 % of control

Cc1ccc(NC(=S)N2CCC(CCCC3CCN(C(=S)Nc4ccc(C)c(C)c4)CC3)CC2)cc1C
inactive: [16] 93 % of control | dose: 100.0 mg/kg/injection, schedule: Q04DX003 (ip), vehicle: Klucel (hydroxypropylcellulose) (HPC) 88 % of control | [17] 90 % of control | dose: 200.0 mg/kg/injection, schedule: Q04DX003 (ip), vehicle: Klucel (hydroxypropylcellulose) (HPC) 98 % of control | [18] 90 % of control | dose: 400.0 mg/kg/injection, schedule: Q04DX003 (ip), vehicle: Klucel (hydroxypropylcellulose) (HPC) 92 % of control

Nc1ncccc1C(=O)O
inactive: dose: 62.5 mg/kg/injection, schedule: Q01DX010 (ip), vehicle: saline 96 % of control and 100 % of control | [2] 101 % of control | dose: 125.0 mg/kg/injection, schedule: Q01DX010 (ip), vehicle: saline 93 % of control and 109 % of control | [3] 98 % of control | dose: 250.0 mg/kg/injection, schedule: Q01DX010 (ip), vehicle: saline 102 % of control and 90 % of control | [4] 95 % of control | dose: 500.0 mg/kg/injection, schedule: Q01DX010 (ip), vehicle: saline 100 % of control and 90 % of control
